Measured values taken from patent publication US20240150377A1, “MODULATORS OF CYSTIC FIBROSIS TRANSMEMBRANE CONDUCTANCE REGULATOR” (VERTEX PHARMACEUTICALS INCORPORATED, priority 2020, published 2024).

Biological target: T1, CFTR (Homo sapiens, UniProt P13569, DEL508-508)
T1 construct: endogenous in cells; host or cells: primary human bronchial epithelial cells from CF subjects (F508del/MF-HBE), differentiated at air-liquid interface
Test: HBE2 assay: Ussing chamber assay of CFTR-mediated short-circuit currents
Assay type: cell-based
Settings: F508del/MF-HBE cells, with 44 nM potentiator, 18-24 hours, 20% human serum; for Emax: read-out: HBE2 Max activity (%)
Protocol: Ussing Chamber Assay of CFTR-Mediated Short-Circuit Currents
After four days the apical media was removed, and the cells were grown at an air liquid interface for >14 days prior to use.
To isolate the CFTR-mediated short-circuit (ISC) current, F508del/MF-HBE grown on Costar® Snapwell™ cell culture inserts were mounted in an Ussing chamber and the transepithelial ISC was measured under voltage-clamp recording conditions (Vhold=0 mV) at 37° C. […] The CFTR-mediated ISC (μA/cm^2) for each condition was determined from the peak forskolin response to the steady-state current following inhibition.
Identification of Corrector Compounds
The activity of the CFTR corrector compounds on the CFTR-mediated ISC was determined in Ussing chamber studies as described above.

T1 sequence (P13569 with tags, fused parts or gaps DEL508-508): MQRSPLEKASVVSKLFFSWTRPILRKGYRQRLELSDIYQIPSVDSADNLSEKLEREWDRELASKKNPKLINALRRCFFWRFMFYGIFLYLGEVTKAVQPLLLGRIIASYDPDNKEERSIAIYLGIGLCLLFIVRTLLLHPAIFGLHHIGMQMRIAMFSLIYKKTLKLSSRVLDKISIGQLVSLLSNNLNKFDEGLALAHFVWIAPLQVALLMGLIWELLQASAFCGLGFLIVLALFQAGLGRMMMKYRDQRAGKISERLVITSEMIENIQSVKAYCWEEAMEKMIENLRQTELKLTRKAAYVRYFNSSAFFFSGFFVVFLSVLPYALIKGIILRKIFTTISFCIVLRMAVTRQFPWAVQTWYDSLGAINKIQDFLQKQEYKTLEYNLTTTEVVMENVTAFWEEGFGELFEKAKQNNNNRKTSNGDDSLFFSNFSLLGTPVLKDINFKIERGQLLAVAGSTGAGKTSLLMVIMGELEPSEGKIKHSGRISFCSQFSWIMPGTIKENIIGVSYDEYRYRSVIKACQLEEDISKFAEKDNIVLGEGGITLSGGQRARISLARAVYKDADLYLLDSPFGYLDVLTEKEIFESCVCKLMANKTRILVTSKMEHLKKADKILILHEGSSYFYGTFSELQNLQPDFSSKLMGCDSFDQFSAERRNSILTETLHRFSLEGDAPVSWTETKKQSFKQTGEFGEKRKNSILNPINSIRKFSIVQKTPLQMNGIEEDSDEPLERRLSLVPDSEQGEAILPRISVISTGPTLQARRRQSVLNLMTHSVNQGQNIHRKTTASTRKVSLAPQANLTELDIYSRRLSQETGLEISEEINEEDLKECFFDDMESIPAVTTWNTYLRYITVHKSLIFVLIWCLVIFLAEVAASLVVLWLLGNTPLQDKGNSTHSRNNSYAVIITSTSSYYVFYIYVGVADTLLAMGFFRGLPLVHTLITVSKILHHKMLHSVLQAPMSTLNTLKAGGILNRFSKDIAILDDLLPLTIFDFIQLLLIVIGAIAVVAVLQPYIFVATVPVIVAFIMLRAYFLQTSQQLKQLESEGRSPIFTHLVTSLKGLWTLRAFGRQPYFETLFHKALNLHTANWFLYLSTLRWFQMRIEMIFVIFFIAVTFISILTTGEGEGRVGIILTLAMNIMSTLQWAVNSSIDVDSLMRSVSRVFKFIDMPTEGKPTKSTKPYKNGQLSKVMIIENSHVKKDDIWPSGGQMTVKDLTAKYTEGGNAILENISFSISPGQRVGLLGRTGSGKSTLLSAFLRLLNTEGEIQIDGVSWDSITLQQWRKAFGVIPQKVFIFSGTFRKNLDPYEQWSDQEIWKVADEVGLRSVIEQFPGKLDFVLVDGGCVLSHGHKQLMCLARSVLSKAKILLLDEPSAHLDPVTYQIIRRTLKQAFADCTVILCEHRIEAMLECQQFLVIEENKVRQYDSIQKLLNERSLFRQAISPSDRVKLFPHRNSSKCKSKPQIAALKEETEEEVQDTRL

| HBE2 Activity at 3 μM (%) (3 μM corrector) | HBE2 Activity at 3 μM (%) (3 μM) | SMILES | further results |
| --- | --- | --- | --- |
| +++ (+++ is >60+) |  | Cc1cccc(C)c1-c1cc2nc(n1)NS(=O)(=O)c1cccc(c1)C(=O)N(Cc1cncc(N3C[C@H]4CCCCC43)n1)[C@H](CC(C)(C)C)CO2 (stereo in doubt) [Compound 1799] |  |
|  | +++ (+++ is >60+) | Cc1cccc(C)c1-c1cc2nc(n1)NS(=O)(=O)c1cccc(c1)C(=O)N(Cc1cncc(N3CCC4OCCC43)n1)[C@H](CC(C)(C)C)CO2 (stereo partly drawn) [Compound 1642] |  |
|  | +++ (+++ is >60+) | CCCOc1cnc(CN2C(=O)c3cccc(c3)S(=O)(=O)Nc3nc(cc(-c4c(C)cccc4C)n3)OC[C@H]2CC2(C)CCC2)nc1 [Compound 1641] |  |
| +++ (+++ is >60+) |  | Cc1cccc(C)c1-c1cc2nc(n1)NS(=O)(=O)c1cccc(c1)C(=O)N(Cc1cncc(N(C)[C@H]3CC[C@@H]3C)n1)[C@H](CC(C)(C)C)CO2 (stereo in doubt) [Compound 1773] |  |
| +++ (+++ is >60+) |  | Cc1cccc(C)c1-c1cc2nc(n1)NS(=O)(=O)c1cccc(c1)C(=O)N(Cc1cncc(N3CCC[C@H]3C)n1)[C@H](CC1CC1)CO2 [Compound 1787] |  |
| +++ (+++ is >60+) |  | CCn1c(C(C)C)cc2ncc(CN3C(=O)c4cccc(c4)S(=O)(=O)Nc4nc(cc(-c5c(C)cccc5C)n4)OC[C@H]3COC(C)C)nc21 [Compound 1933] |  |
|  | +++ (+++ is >60+) | Cc1cccc(C)c1-c1cc2nc(n1)NS(=O)(=O)c1cccc(c1)C(=O)N(Cc1cncc(N3CCOCC34CCC4)n1)[C@H](CC(C)(C)C)CO2 [Compound 1627] |  |
| +++ (+++ is >60+) |  | Cc1cccc(C)c1-c1cc2nc(n1)NS(=O)(=O)c1cccc(c1)C(=O)N(Cc1cncc(C3CCCCO3)n1)[C@H](CCC(C)(C)C)CO2 (stereo in doubt) [Compound 1880] |  |
|  | +++ (+++ is >60+) | Cc1cccc(C)c1-c1cc2nc(n1)NS(=O)(=O)c1cccc(c1)C(=O)N(Cc1cncc(N3CCCCC34CCC4)n1)[C@H](CC(C)(C)C)CO2 [Compound 1626] |  |
| +++ (+++ is >60+) |  | Cc1cccc(C)c1-c1cc2nc(n1)NS(=O)(=O)c1cccc(c1)C(=O)N(Cc1cncc(N(C)C3CC4(CC4)C3)n1)[C@H](CCC(C)C)CO2 [Compound 1796] |  |
|  | +++ (+++ is >60+) | Cc1cccc(C)c1-c1cc2nc(n1)NS(=O)(=O)c1cccc(c1)C(=O)N(Cc1cncc(N3CCCC3=O)n1)[C@H](CC(C)(C)C)CO2 [Compound 1652] |  |
| +++ (+++ is >60+) |  | Cc1cccc(C)c1-c1cc2nc(n1)NS(=O)(=O)c1cccc(c1)C(=O)N(Cc1cncc(N(C)[C@H]3C[C@@H](C)C3)n1)[C@H](CCC(C)(C)C)CO2 [Compound 1884] |  |
| +++ (+++ is >60+) |  | Cc1cccc(C)c1-c1cc2nc(n1)NS(=O)(=O)c1cccc(c1)C(=O)N(Cc1cncc(N3CC[C@H]3C)n1)[C@H](CC(C)(C)F)CO2 [Compound 1801] |  |
| +++ (+++ is >60+) |  | Cc1cccc(C)c1-c1cc2nc(n1)NS(=O)(=O)c1cccc(c1)C(=O)N(Cc1ncc(OC(C)C)cn1)[C@H](COC(C)C)CO2 [Compound 1957] |  |
|  | +++ (+++ is >60+) | Cc1cccc(C)c1-c1cc2nc(n1)NS(=O)(=O)c1cccc(c1)C(=O)N(Cc1cncc(N3CCC[C@@H]4COC[C@@H]43)n1)[C@H](CC(C)(C)C)CO2 [Compound 1680] |  |
|  | +++ (+++ is >60+) | Cc1cccc(C)c1-c1cc2nc(n1)NS(=O)(=O)c1cccc(c1)C(=O)N(Cc1cncc(N(C)[C@@H]3CC4COCC43)n1)[C@H](CC(C)(C)C)CO2 (stereo in doubt) [Compound 1676] |  |
| +++ (+++ is >60+) |  | Cc1cccc(C)c1-c1cc2nc(n1)NS(=O)(=O)c1cccc(c1)C(=O)N(Cc1cnc3cc(C(C)C)n(C)c3n1)[C@H](CC(C)(C)C)CO2 [Compound 1756] |  |
| +++ (+++ is >60+) |  | Cc1cccc(C)c1-c1cc2nc(n1)NS(=O)(=O)c1cccc(c1)C(=O)N(Cc1cncc(N(C)CC(C)(C)C)n1)[C@H](CCC(C)(C)C)CO2 [Compound 1739] |  |
| +++ (+++ is >60+) |  | Cc1cccc(C)c1-c1cc2nc(n1)NS(=O)(=O)c1cccc(c1)C(=O)N(Cc1cnc3cc(C(C)C)n(C)c3n1)[C@H](C[C@H]1CCCOC1)CO2 [Compound 1931] |  |
| +++ (+++ is >60+) |  | Cc1cccc(C)c1-c1cc2nc(n1)NS(=O)(=O)c1cccc(c1)C(=O)N(Cc1cncc(N3CCCC[C@H]3C)n1)[C@H](CC1CC1)CO2 [Compound 1792] |  |
| +++ (+++ is >60+) |  | Cc1cccc(C)c1-c1cc2nc(n1)NS(=O)(=O)c1cccc(c1)C(=O)N(Cc1cncc(N3CCCC3C(C)C)n1)[C@H](CC1CCCCC1)CO2 (stereo partly drawn) [Compound 1824] |  |

| HBE2 Activity at 3 μM (%) (3 μM corrector) | HBE2 Activity at 3 μM (%) (3 μM) | SMILES | further results |
| --- | --- | --- | --- |
| +++ (+++ is >60+) |  | Cc1cccc(C)c1-c1cc2nc(n1)NS(=O)(=O)c1cccc(c1)C(=O)N(Cc1cncc(N(C)C(C)C)n1)[C@H](CCC(C)C)CO2 [Compound 1771] |  |
| +++ (+++ is >60+) |  | Cc1cccc(C)c1-c1cc2nc(n1)NS(=O)(=O)c1cccc(c1)C(=O)N(Cc1cncc(N3CCCC4CCC43)n1)[C@H](CC1CC1)CO2 (stereo in doubt) [Compound 1838] |  |
|  | +++ (+++ is >60+) | COc1cc(CN2C(=O)c3cccc(c3)S(=O)(=O)Nc3nc(cc(-c4c(C)cccc4C)n3)OC[C@H]2CC(C)(C)C)nc(N(C)C2CCC2)c1 [Compound 1700] |  |
|  | +++ (+++ is >60+) | Cc1cccc(C)c1-c1cc2nc(n1)NS(=O)(=O)c1cccc(c1)C(=O)N(Cc1cncc(N(C)C3CCC3)n1)[C@H](CC1(C)CCC1)CO2 [Compound 1683] | EC50: < 1000 nM; Emax: > 60% |
|  | ++ (++ is 30-60%) | Cc1cccc(C)c1-c1cc2nc(n1)NS(=N)(=O)c1cccc(c1)C(=O)N(Cc1ncc(N3CC(C)(C)C3)cn1)[C@H](CC(C)(C)C)CO2 (single isomer, unassigned) [Compound 1312] |  |
| +++ (+++ is >60+) |  | Cc1cccc(C)c1-c1cc2nc(n1)NS(=O)(=O)c1cccc(c1)C(=O)N(Cc1cncc(N3CCCC[C@H]3C)n1)[C@@H](C1CC(C)(C)C1)CO2 [Compound 1898] |  |
| +++ (+++ is >60+) |  | COCC1CCN1c1cncc(CN2C(=O)c3cccc(c3)S(=O)(=O)Nc3nc(cc(-c4c(C)cccc4C)n3)OC[C@H]2COC2CC2)n1 (stereo in doubt) [Compound 1894] |  |
| ++ (++ is 30-60%) |  | Cc1cccc(C)c1-c1cc2nc(n1)NS(=O)(=O)c1cccc(c1)C(=O)N(Cc1cncc(N(C)C3CCC3)n1)[C@H](C1CC(C)(C)C1)CO2 (stereo in doubt) [Compound 1895] |  |
| +++ (+++ is >60+) |  | Cc1cccc(C)c1-c1cc2nc(n1)NS(=O)(=O)c1cccc(c1)C(=O)N(Cc1cnc3cc(C(C)C)n(C)c3n1)[C@H](CC1(C)CC1)CO2 [Compound 1831] |  |
| +++ (+++ is >60+) |  | Cc1cccc(C)c1-c1cc2nc(n1)NS(=O)(=O)c1cccc(c1)C(=O)N(Cc1cncc(N(C)CC(C)C)n1)[C@H](CC1CCCCC1)CO2 [Compound 1821] |  |
| +++ (+++ is >60+) |  | CCC(C)(C)C[C@@H]1COc2cc(-c3c(C)cccc3C)nc(n2)NS(=O)(=O)c2cccc(c2)C(=O)N1Cc1cncc(N2CCCC[C@H]2C)n1 [Compound 1863] |  |
| +++ (+++ is >60+) |  | Cc1cccc(C)c1-c1cc2nc(n1)NS(=O)(=O)c1cc(n(C)n1)C(=O)N(Cc1cncc(N3CCC[C@H]3C)n1)[C@H](CC(C)(C)C)CO2 [Compound 1945] |  |
| +++ (+++ is >60+) |  | Cc1cccc(C)c1-c1cc2nc(n1)NS(=O)(=O)c1cccc(n1)C(=O)N(Cc1cncc(N(C)C3CCC3)c1)[C@H](CC(C)(C)C)CO2 [Compound 1924] |  |
| +++ (+++ is >60+) |  | CCN(CC1CC1)c1cncc(CN2C(=O)c3cccc(c3)S(=O)(=O)Nc3nc(cc(-c4c(C)cccc4C)n3)OC[C@H]2CCC(C)(C)C)n1 [Compound 1809] |  |
|  | +++ (+++ is >60+) | Cc1cccc(C)c1-c1cc2nc(n1)NS(=O)(=O)c1cccc(c1)C(=O)N(Cc1coc(N(C)C3CC(F)(F)C3)n1)[C@H](CC(C)(C)C)CO2 [Compound 1647] |  |
| +++ (+++ is >60+) |  | Cc1cccc(C)c1-c1cc2nc(n1)NS(=O)(=O)c1cccc(c1)C(=O)N(Cc1cnc3c(n1)N(C)C(C)(C)C3)[C@H](CC(C)(C)C)CO2 [Compound 1883] |  |
| +++ (+++ is >60+) |  | Cc1cccc(C)c1-c1cc2nc(n1)NS(=O)(=O)c1cccc(c1)C(=O)N(Cc1cncc(N3CCC[C@@H]3C3CC3)n1)[C@H](COC1CC1)CO2 (stereo in doubt) [Compound 1891] |  |
|  |  | Cc1cccc(C)c1-c1cc2nc(n1)NS(=O)(=O)c1cccc(c1)C(=O)N(Cc1cncc(N3CC[C@@H]4COC[C@@H]43)n1)[C@H](CC(C)(C)C)CO2 [Compound 1541] | EC50: < 1000 nM; Emax: > 60% |
|  | +++ (+++ is >60+) | Cc1cccc(C)c1-c1cc2nc(n1)NS(=O)(=O)c1cccc(c1)C(=O)N(Cc1cncc(N3CC[C@H]4CN(C(=O)OC(C)C)CC43)n1)[C@H](CC(C)(C)C)CO2 (stereo in doubt) [Compound 1664] |  |
|  | +++ (+++ is >60+) | Cc1cccc(C)c1-c1cc2nc(n1)NS(=O)(=O)c1cccc(c1)C(=O)N(Cc1cncc(N3CCC[C@H]4COC[C@H]43)n1)[C@H](CC(C)(C)C)CO2 (stereo in doubt) [Compound 1679] |  |
|  | +++ (+++ is >60+) | COC[C@H]1C[C@H](N(C)c2cncc(CN3C(=O)c4cccc(c4)S(=O)(=O)Nc4nc(cc(-c5c(C)cccc5C)n4)OC[C@H]3CC(C)(C)C)n2)C1 [Compound 1620] |  |
